Measured values from PubChem BioAssay AID248 (DTP/NCI, 2004).
Toxic doses and inconclusive results are not listed. Rule as the data show it: active = T/C of 150% or more; inactive = T/C below 125%.

System: L1210 leukemia ip in BDF1 mice, survival T/C
Assay: NCI In Vivo Anticancer Drug Screen. Data for tumor model L1210 Leukemia (intraperitoneal) in B6D2F1 (BDF1) mice
Conditions: endpoint: mean survival time, higher = longer survival
Procedure, shortened: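 Read-out is survival time, reported as the treated-group measurement over the vehicle-control measurement.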

[1] = dose: 100.0 mg/kg/injection, schedule: Q01DX001 (ip), vehicle: other
[2] = dose: 200.0 mg/kg/injection, schedule: Q01DX001 (ip), vehicle: other
[3] = dose: 400.0 mg/kg/injection, schedule: Q01DX001 (ip), vehicle: other
[4] = dose: 100.0 mg/kg/injection, schedule: Q04DX003 (ip), vehicle: saline with Tween-80
[5] = dose: 200.0 mg/kg/injection, schedule: Q04DX003 (ip), vehicle: saline with Tween-80
[6] = dose: 100.0 mg/kg/injection, schedule: Q01DX001 (ip), vehicle: carboxymethylcellulose (CMC)
[7] = dose: 200.0 mg/kg/injection, schedule: Q01DX001 (ip), vehicle: carboxymethylcellulose (CMC)
[8] = dose: 400.0 mg/kg/injection, schedule: Q01DX001 (ip), vehicle: carboxymethylcellulose (CMC)
[9] = dose: 100.0 mg/kg/injection, schedule: Q01DX009 (ip), vehicle: saline
[10] = dose: 100.0 mg/kg/injection, schedule: Q04DX003 (ip), vehicle: saline
[11] = dose: 200.0 mg/kg/injection, schedule: Q01DX009 (ip), vehicle: saline
[12] = dose: 200.0 mg/kg/injection, schedule: Q04DX003 (ip), vehicle: saline
[13] = dose: 400.0 mg/kg/injection, schedule: Q01DX009 (ip), vehicle: saline
[14] = dose: 400.0 mg/kg/injection, schedule: Q04DX003 (ip), vehicle: saline
[15] = dose: 50.0 mg/kg/injection, schedule: Q04DX003 (ip), vehicle: saline
[16] = dose: 50.0 mg/kg/injection, schedule: Q01DX009 (ip), vehicle: acetone
[17] = dose: 100.0 mg/kg/injection, schedule: Q01DX001 (ip), vehicle: saline
[18] = dose: 200.0 mg/kg/injection, schedule: Q01DX001 (ip), vehicle: saline
[19] = dose: 400.0 mg/kg/injection, schedule: Q01DX001 (ip), vehicle: saline
[20] = dose: 8.0 mg/kg/injection, schedule: Q01DX015 (ip), vehicle: saline
[21] = dose: 16.0 mg/kg/injection, schedule: Q01DX015 (ip), vehicle: saline
[22] = dose: 32.0 mg/kg/injection, schedule: Q01DX015 (ip), vehicle: saline
[23] = dose: 100.0 mg/kg/injection, schedule: Q04DX003 (ip), vehicle: saline sonified

Measured: T/C

NC(N)=N/N=C\c1ccc(CCC(=O)O)cc1
inactive: dose: 15.0 mg/kg/injection, schedule: Q01DX Z (ip), vehicle: carboxymethylcellulose (CMC) 97 % of control | dose: 30.0 mg/kg/injection, schedule: Q01DX Z (ip), vehicle: carboxymethylcellulose (CMC) 97 % of control | dose: 60.0 mg/kg/injection, schedule: Q01DX Z (ip), vehicle: carboxymethylcellulose (CMC) 101 % of control | dose: 120.0 mg/kg/injection, schedule: Q01DX Z (ip), vehicle: carboxymethylcellulose (CMC) 97 % of control | dose: 120.0 mg/kg/injection, schedule: Q01DX Z (oral), vehicle: carboxymethylcellulose (CMC) 113 % of control | dose: 240.0 mg/kg/injection, schedule: Q01DX Z (oral), vehicle: carboxymethylcellulose (CMC) 112 % of control | dose: 480.0 mg/kg/injection, schedule: Q01DX Z (oral), vehicle: carboxymethylcellulose (CMC) 109 % of control | dose: 960.0 mg/kg/injection, schedule: Q01DX Z (oral), vehicle: carboxymethylcellulose (CMC) 109 % of control

O=C(O)C(CS)NS(=O)(=O)Cc1ccccc1 (stereo not given)
inactive: [1] 104 % of control | [2] 94 % of control | [3] 100 % of control

CC(=O)Nc1ccc(N=C(N)c2ccc(C(N)=Nc3ccc(NC(C)=O)cc3)cc2)cc1
inactive: dose: 62.0 mg/kg/injection, schedule: Q01DX015 (ip), vehicle: methylcellulose (MC) 98 % of control | dose: 125.0 mg/kg/injection, schedule: Q01DX015 (ip), vehicle: methylcellulose (MC) 86 % of control | dose: 250.0 mg/kg/injection, schedule: Q01DX015 (ip), vehicle: methylcellulose (MC) 91 % of control | dose: 500.0 mg/kg/injection, schedule: Q01DX015 (ip), vehicle: methylcellulose (MC) 86 % of control

BrC12CC3CC(CC(C3)C1)C2
inactive: [4] 98 % of control | [5] 102 % of control | dose: 400.0 mg/kg/injection, schedule: Q04DX003 (ip), vehicle: saline with Tween-80 98 % of control

Brc1ccc(/C=C2\C=Cc3ccccc32)cc1
inactive: [6] 98 % of control | [7] 93 % of control | [8] 93 % of control

CCCCCCCCCCCCSC(=S)N(CC)CC
inactive: dose: 87.5 mg/kg/injection, schedule: Q01DX009 (ip), vehicle: other 89 % of control | dose: 175.0 mg/kg/injection, schedule: Q01DX009 (ip), vehicle: other 93 % of control | dose: 350.0 mg/kg/injection, schedule: Q01DX009 (ip), vehicle: other 97 % of control

c1ccc(-c2c[n+]3cc4ccccc4cc3cn2)cc1
inactive: [9] 91 % of control | [10] 100 % of control | [11] 96 % of control | [12] 96 % of control | [13] 97 % of control | [14] 98 % of control

C[n+]1ccc2ccccc2c1
inactive: dose: 50.0 mg/kg/injection, schedule: Q01DX009 (ip), vehicle: saline 105 % of control | [15] 105 % of control | [9] 100 % of control | [10] 101 % of control | [11] 107 % of control | [12] 106 % of control

CC(=Nc1ccccc1)NO
inactive: [16] 94 % of control | dose: 100.0 mg/kg/injection, schedule: Q01DX009 (ip), vehicle: acetone 97 % of control | [10] 96 % of control | dose: 200.0 mg/kg/injection, schedule: Q01DX009 (ip), vehicle: acetone 100 % of control | [12] 108 % of control | [14] 96 % of control

Cc1ccnc(N)c1
inactive: dose: 12.5 mg/kg/injection, schedule: Q04DX002 (ip), vehicle: saline 114 % of control | dose: 25.0 mg/kg/injection, schedule: Q04DX002 (ip), vehicle: saline 102 % of control | dose: 50.0 mg/kg/injection, schedule: Q04DX002 (ip), vehicle: saline 96 % of control

OB(Cc1ccccc1)c1ccccc1
inactive: [17] 97 % of control | [18] 89 % of control | [19] 97 % of control

II
inactive: dose: 12.0 mg/kg/injection, schedule: Q01DX009 (ip), vehicle: acetone 96 % of control | dose: 25.0 mg/kg/injection, schedule: Q01DX009 (ip), vehicle: acetone 93 % of control | [16] 106 % of control

CCN(CC)CCOC(=O)c1ccccc1Nc1cccc(C)c1
inactive: dose: 4.0 mg/kg/injection, schedule: Q01DX015 (ip), vehicle: saline 98 % of control | [20] 102 % of control | [21] 98 % of control | [22] 106 % of control | [15] 101 % of control | [10] 103 % of control

CC(=O)N1C(=O)C(Cl)C(Cl)C(=O)N1C(C)=O (stereo not given)
inactive: dose: 100.0 mg/kg/injection, schedule: Q04DX003 (ip), vehicle: Klucel (hydroxypropylcellulose) (HPC) 89 % of control | dose: 200.0 mg/kg/injection, schedule: Q04DX003 (ip), vehicle: Klucel (hydroxypropylcellulose) (HPC) 89 % of control

COc1ccc(C(=O)NN2C(N)=NC(N)=NC2(C)C)cc1
inactive: [10] 94 % of control | [12] 97 % of control

Cc1cccc(C(=O)[O][Pb]([CH3])([CH3])[CH3])c1
inactive: dose: 12.5 mg/kg/injection, schedule: Q04DX002 (ip), vehicle: Klucel (hydroxypropylcellulose) (HPC) 100 % of control

CC(C)CC(NS(=O)(=O)Cc1ccccc1)C(=O)O (stereo not given)
inactive: [1] 105 % of control | [2] 107 % of control | [3] 96 % of control

O=[N+]([O-])c1ccc(N2CCN=N2)cc1
inactive: [20] 107 % of control | [21] 110 % of control | [22] 113 % of control | dose: 64.0 mg/kg/injection, schedule: Q01DX015 (ip), vehicle: saline 116 % of control | [17] 103 % of control | [23] 104 % of control | [19] 111 % of control

C(=NCCN=Cc1c[nH]c2ccccc12)c1c[nH]c2ccccc12
inactive: dose: 100.0 mg/kg/injection, schedule: Q01DX009 (ip), vehicle: saline with Tween-80 100 % of control | [4] 89 % of control | dose: 200.0 mg/kg/injection, schedule: Q01DX009 (ip), vehicle: saline with Tween-80 102 % of control | [5] 96 % of control

COc1cccc(Cc2c[nH]c(=S)[nH]c2=O)c1
inactive: dose: 100.0 mg/kg/injection, schedule: Q01DX009 (ip), vehicle: Klucel (hydroxypropylcellulose) (HPC) 108 % of control | dose: 200.0 mg/kg/injection, schedule: Q01DX009 (ip), vehicle: Klucel (hydroxypropylcellulose) (HPC) 96 % of control

CCS(=O)(=O)c1ccc(C)cc1
inactive: [17] 95 % of control | [9] 89 % of control | [10] 109 % of control | [18] 93 % of control | [11] 95 % of control | [12] 95 % of control | [19] 96 % of control | [13] 87 % of control | [14] 98 % of control

C/C(=C(/CCO)SCC/C(=N/O)c1ccccc1)N(C=O)Cc1cnc(C)nc1N
inactive: [10] 104 % of control | [12] 97 % of control | [14] 93 % of control

O=[N+]([O-])c1cc2c(c([N+](=O)[O-])c1)OCOC2
inactive: [10] 100 % of control | [12] 97 % of control | [14] 107 % of control

O=C1c2ccccc2-c2nc3ccccc3nc21
inactive: dose: 45.0 mg/kg/injection, schedule: Q01DX009 (ip), vehicle: Klucel (hydroxypropylcellulose) (HPC) 95 % of control | dose: 90.0 mg/kg/injection, schedule: Q01DX009 (ip), vehicle: Klucel (hydroxypropylcellulose) (HPC) 93 % of control | [23] 101 % of control | dose: 180.0 mg/kg/injection, schedule: Q01DX009 (ip), vehicle: Klucel (hydroxypropylcellulose) (HPC) 91 % of control | dose: 200.0 mg/kg/injection, schedule: Q04DX003 (ip), vehicle: saline sonified 97 % of control | dose: 400.0 mg/kg/injection, schedule: Q04DX003 (ip), vehicle: saline sonified 90 % of control

O=C(Nc1ccc(S(=O)(=O)c2ccc(NC(=O)C(F)(F)Cl)cc2)cc1)C(F)(F)Cl
inactive: [6] 104 % of control | [7] 101 % of control | [8] 103 % of control

CC(=O)OCCS(=O)(=O)CCc1ccccc1
inactive: dose: 62.5 mg/kg/injection, schedule: Q01DX009 (ip), vehicle: Klucel (hydroxypropylcellulose) (HPC) 96 % of control | dose: 125.0 mg/kg/injection, schedule: Q01DX009 (ip), vehicle: Klucel (hydroxypropylcellulose) (HPC) 100 % of control | dose: 250.0 mg/kg/injection, schedule: Q01DX009 (ip), vehicle: Klucel (hydroxypropylcellulose) (HPC) 98 % of control
